{"source": "patent US20210261642A1", "about": "“SOLUBILITY OF GLP-1 PEPTIDE” (Novo Nordisk A/S, priority 2017, published 2021)", "test": "Assay (I): Determination of Solubility (96-well plate, pH 3.0-11.0, organic solvent 0-70% w/w, UV absorption at 280 nm)", "assay_type": "physicochemical", "conditions": "Method 1", "method": "Assay (I): Determination of Solubility\n96-Well Plate Preparation\n96-well plates containing target peptide in a solid form were prepared in one of two ways:\nMethod 1 (evaporation): Addition of 100 μl stock solution of said peptide at a concentration of 4-6 mg/ml to each well of a 96-well half area plate (150 μl well size). Subsequently the solvent was evaporated by applying a vacuum until the solvent was completely removed.\nMethod 2 (precipitation): Addition of a certain volume of a stock solution of said peptide containing to each well of a 96-well half area plate followed by the addition of a certain volume of concentrated phosphoric acid to obtain a pH of 4.6 followed by addition of a certain volume of ethanol resulting in a final ethanol concentration of 20% v/v. Subsequently the plate was stored at 4° C. for 1 h and then centrifuged at 4,000 rpm for 20 min. Finally the supernatant was removed. The concentration of the stock solution was chosen in a way that the final amount of peptide after supernatant removal was >0.4 mg per well.\nIn both cases the stock solution was prepared by adding de-ionized water to a certain amount of powder of said peptide followed by a stepwise addition of small amounts of a concentrated sodium hydroxide solution until said peptide was completely in solution.\nTo determine solubility of a target peptide at different pH and organic solvent concentrations, two different buffer systems were used in independent experiments to cover the whole range from pH 3.0 to pH 11.0. Buffer system 1 covers pH 3.0-7.5 and buffer system 2 covers pH 7.5-11.0. For each buffer system 96 different solvent compositions were premixed in the following way: • 1. A low pH buffer (adjusted to either pH 3.0 or pH 7.5) and a high pH buffer (adjusted to either pH 7.5 or pH 11.0) were mixed at 8 different ratios to obtain values between pH 3.0 and pH 7.5 or pH 7.5 and pH 11.0, respectively. The total volume after mixing was 300 μl. • 2. 12 different amounts of organic solvent were then added to these buffers to obtain organic solvent (e.g. ethanol) concentrations between 0 and 70% w/w. • 3. Water was then added to obtain a total weight of 1.0 g of solvent in each well.\nAfter preparing the 96 different solvent systems, 100 μl of each system was transferred to the 96-well plate containing the solid form of the target peptide (prepared as described in the section “96-well plate preparation”). The plate was then stored at a given temperature (between 5° C. and 70° C.) for a given time on a rotating shaker set to 400 rpm. At regular time intervals the plate was centrifuged (4,000 rpm for 10 min) and a 10 μl sample was taken from each well. The samples were then analysed by UV absorption at 280 nm for peptide quantification. Peptide concentration results are given as UV absorption at 280 nm of the sample subtracted UV absorption at 280 nm of a well comprising 10 μl water.\nThe buffers used were as follows: • Buffer system 1 (for the pH range from pH 3.0-7.5)\n• Buffer system 2 (for the pH ranae from pH 7.5-11.0)\nSolubility of liraglutide was determined using Assay (I) described herein. Liraglutide was prepared using Method 1 (evaporation) or Method 2 (precipitation) as described in subsection “96-well plate preparation”."}
{"smiles": "CCCCCCCCCCCCCCCC(=O)N[C@@H](CCC(=O)NCCCC[C@H](NC(=O)[C@H](C)NC(=O)[C@H](C)NC(=O)[C@H](CCC(N)=O)NC(=O)CNC(=O)[C@H](CCC(=O)O)NC(=O)[C@H](CC(C)C)NC(=O)[C@H](Cc1ccc(O)cc1)NC(=O)[C@H](CO)NC(=O)[C@H](CO)NC(=O)[C@@H](NC(=O)[C@H](CC(=O)O)NC(=O)[C@H](CO)NC(=O)[C@@H](NC(=O)[C@H](Cc1ccccc1)NC(=O)[C@@H](NC(=O)CNC(=O)[C@H](CCC(=O)O)NC(=O)[C@H](C)NC(=O)[C@@H](N)Cc1cnc[nH]1)[C@@H](C)O)[C@@H](C)O)C(C)C)C(=O)N[C@@H](CCC(=O)O)C(=O)N[C@@H](Cc1ccccc1)C(=O)N[C@H](C(=O)N[C@@H](C)C(=O)N[C@@H](Cc1c[nH]c2ccccc12)C(=O)N[C@@H](CC(C)C)C(=O)N[C@H](C(=O)N[C@@H](CCCNC(=N)N)C(=O)NCC(=O)N[C@@H](CCCNC(=N)N)C(=O)NCC(=O)O)C(C)C)[C@@H](C)CC)C(=O)O", "note": "[liraglutide, Arg34,Lys26-(N-epsilon-(gamma-L-glutamyl(N-alfa-hexadecanoyl)))-GLP-1(7-37)]", "values": [{"measurement": "Peptide concentration after 5 min", "setting": "MeCN 31.8% w/w, pH 10.0, 5° C.", "value": 1.9, "unit": "mg/mL"}, {"measurement": "Peptide concentration after 180 min", "setting": "MeCN 31.8% w/w, pH 10.0, 5° C.", "value": ">4.0", "unit": "mg/mL"}, {"measurement": "Peptide concentration after 24 h", "setting": "MeCN 31.8% w/w, pH 10.0, 5° C.", "value": 2.8, "unit": "mg/mL"}, {"measurement": "Peptide concentration after 5 min", "setting": "MeCN 31.8% w/w, pH 10.5, 5° C.", "value": 1.3, "unit": "mg/mL"}, {"measurement": "Peptide concentration after 180 min", "setting": "MeCN 31.8% w/w, pH 10.5, 5° C.", "value": 3.9, "unit": "mg/mL"}, {"measurement": "Peptide concentration after 24 h", "setting": "MeCN 31.8% w/w, pH 10.5, 5° C.", "value": 3.6, "unit": "mg/mL"}, {"measurement": "Peptide concentration after 5 min", "setting": "MeCN 31.8% w/w, pH 11.0, 5° C.", "value": 0.8, "unit": "mg/mL"}, {"measurement": "Peptide concentration after 180 min", "setting": "MeCN 31.8% w/w, pH 11.0, 5° C.", "value": 3.0, "unit": "mg/mL"}, {"measurement": "Peptide concentration after 24 h", "setting": "MeCN 31.8% w/w, pH 11.0, 5° C.", "value": ">4.0", "unit": "mg/mL"}, {"measurement": "Peptide concentration after 5 min", "setting": "MeCN 38.2% w/w, pH 8.0, 5° C.", "value": 0.8, "unit": "mg/mL"}, {"measurement": "Peptide concentration after 180 min", "setting": "MeCN 38.2% w/w, pH 8.0, 5° C.", "value": 3.2, "unit": "mg/mL"}, {"measurement": "Peptide concentration after 24 h", "setting": "MeCN 38.2% w/w, pH 8.0, 5° C.", "value": ">4.0", "unit": "mg/mL"}, {"measurement": "Peptide concentration after 5 min", "setting": "MeCN 38.2% w/w, pH 8.5, 5° C.", "value": 0.8, "unit": "mg/mL"}, {"measurement": "Peptide concentration after 180 min", "setting": "MeCN 38.2% w/w, pH 8.5, 5° C.", "value": 2.9, "unit": "mg/mL"}, {"measurement": "Peptide concentration after 24 h", "setting": "MeCN 38.2% w/w, pH 8.5, 5° C.", "value": ">4.0", "unit": "mg/mL"}, {"measurement": "Peptide concentration after 5 min", "setting": "MeCN 38.2% w/w, pH 9.0, 5° C.", "value": 0.4, "unit": "mg/mL"}, {"measurement": "Peptide concentration after 180 min", "setting": "MeCN 38.2% w/w, pH 9.0, 5° C.", "value": 2.0, "unit": "mg/mL"}, {"measurement": "Peptide concentration after 24 h", "setting": "MeCN 38.2% w/w, pH 9.0, 5° C.", "value": ">4.0", "unit": "mg/mL"}, {"measurement": "Peptide concentration after 5 min", "setting": "MeCN 38.2% w/w, pH 9.5, 5° C.", "value": 1.1, "unit": "mg/mL"}, {"measurement": "Peptide concentration after 180 min", "setting": "MeCN 38.2% w/w, pH 9.5, 5° C.", "value": 3.9, "unit": "mg/mL"}, {"measurement": "Peptide concentration after 24 h", "setting": "MeCN 38.2% w/w, pH 9.5, 5° C.", "value": 4.0, "unit": "mg/mL"}, {"measurement": "Peptide concentration after 5 min", "setting": "MeCN 38.2% w/w, pH 10.0, 5° C.", "value": 1.5, "unit": "mg/mL"}, {"measurement": "Peptide concentration after 180 min", "setting": "MeCN 38.2% w/w, pH 10.0, 5° C.", "value": ">4.0", "unit": "mg/mL"}, {"measurement": "Peptide concentration after 24 h", "setting": "MeCN 38.2% w/w, pH 10.0, 5° C.", "value": ">4.0", "unit": "mg/mL"}, {"measurement": "Peptide concentration after 5 min", "setting": "MeCN 38.2% w/w, pH 10.5, 5° C.", "value": 1.2, "unit": "mg/mL"}, {"measurement": "Peptide concentration after 180 min", "setting": "MeCN 38.2% w/w, pH 10.5, 5° C.", "value": 3.2, "unit": "mg/mL"}, {"measurement": "Peptide concentration after 24 h", "setting": "MeCN 38.2% w/w, pH 10.5, 5° C.", "value": 2.1, "unit": "mg/mL"}, {"measurement": "Peptide concentration after 5 min", "setting": "MeCN 38.2% w/w, pH 11.0, 5° C.", "value": 0.6, "unit": "mg/mL"}, {"measurement": "Peptide concentration after 180 min", "setting": "MeCN 38.2% w/w, pH 11.0, 5° C.", "value": 2.7, "unit": "mg/mL"}, {"measurement": "Peptide concentration after 24 h", "setting": "MeCN 38.2% w/w, pH 11.0, 5° C.", "value": ">4.0", "unit": "mg/mL"}, {"measurement": "Peptide concentration after 5 min", "setting": "MeCN 44.5% w/w, pH 8.0, 5° C.", "value": 0.7, "unit": "mg/mL"}, {"measurement": "Peptide concentration after 180 min", "setting": "MeCN 44.5% w/w, pH 8.0, 5° C.", "value": 2.8, "unit": "mg/mL"}, {"measurement": "Peptide concentration after 24 h", "setting": "MeCN 44.5% w/w, pH 8.0, 5° C.", "value": ">4.0", "unit": "mg/mL"}, {"measurement": "Peptide concentration after 5 min", "setting": "MeCN 44.5% w/w, pH 8.5, 5° C.", "value": 1.1, "unit": "mg/mL"}, {"measurement": "Peptide concentration after 180 min", "setting": "MeCN 44.5% w/w, pH 8.5, 5° C.", "value": 3.3, "unit": "mg/mL"}, {"measurement": "Peptide concentration after 24 h", "setting": "MeCN 44.5% w/w, pH 8.5, 5° C.", "value": ">4.0", "unit": "mg/mL"}, {"measurement": "Peptide concentration after 5 min", "setting": "MeCN 44.5% w/w, pH 9.0, 5° C.", "value": 1.7, "unit": "mg/mL"}, {"measurement": "Peptide concentration after 180 min", "setting": "MeCN 44.5% w/w, pH 9.0, 5° C.", "value": 2.7, "unit": "mg/mL"}, {"measurement": "Peptide concentration after 24 h", "setting": "MeCN 44.5% w/w, pH 9.0, 5° C.", "value": ">4.0", "unit": "mg/mL"}, {"measurement": "Peptide concentration after 5 min", "setting": "MeCN 44.5% w/w, pH 9.5, 5° C.", "value": 1.1, "unit": "mg/mL"}, {"measurement": "Peptide concentration after 180 min", "setting": "MeCN 44.5% w/w, pH 9.5, 5° C.", "value": 3.7, "unit": "mg/mL"}, {"measurement": "Peptide concentration after 24 h", "setting": "MeCN 44.5% w/w, pH 9.5, 5° C.", "value": 1.3, "unit": "mg/mL"}, {"measurement": "Peptide concentration after 5 min", "setting": "MeCN 44.5% w/w, pH 10.0, 5° C.", "value": 1.3, "unit": "mg/mL"}, {"measurement": "Peptide concentration after 180 min", "setting": "MeCN 44.5% w/w, pH 10.0, 5° C.", "value": 3.7, "unit": "mg/mL"}, {"measurement": "Peptide concentration after 24 h", "setting": "MeCN 44.5% w/w, pH 10.0, 5° C.", "value": ">4.0", "unit": "mg/mL"}, {"measurement": "Peptide concentration after 5 min", "setting": "MeCN 44.5% w/w, pH 10.5, 5° C.", "value": 0.9, "unit": "mg/mL"}, {"measurement": "Peptide concentration after 180 min", "setting": "MeCN 44.5% w/w, pH 10.5, 5° C.", "value": 2.9, "unit": "mg/mL"}, {"measurement": "Peptide concentration after 24 h", "setting": "MeCN 44.5% w/w, pH 10.5, 5° C.", "value": ">4.0", "unit": "mg/mL"}, {"measurement": "Peptide concentration after 5 min", "setting": "MeCN 44.5% w/w, pH 11.0, 5° C.", "value": 0.8, "unit": "mg/mL"}, {"measurement": "Peptide concentration after 180 min", "setting": "MeCN 44.5% w/w, pH 11.0, 5° C.", "value": 2.9, "unit": "mg/mL"}, {"measurement": "Peptide concentration after 24 h", "setting": "MeCN 44.5% w/w, pH 11.0, 5° C.", "value": ">4.0", "unit": "mg/mL"}, {"measurement": "Peptide concentration after 5 min", "setting": "MeCN 50.9% w/w, pH 8.0, 5° C.", "value": 0.6, "unit": "mg/mL"}]}
